Blank lines part the entries; values can stand above or below the molecule they belong to. Activity calls are given as the source filed them. No cut-off for these calls is given here.
What was measured:
A-375 [1] = assay: Phototoxicity against human A375 cells assessed as reduction in cell viability up to 500 nM preincubated for 24 hrs followed by exposure to light with fluence rate of 7.5 mW/cm2 at 10 J and measured after 24 hrs in presence of hydroxyl radical scavenger D-mannitol by MTT assay; type: functional, cell-based
A-375 [2] = assay: Induction of p53 expression in human A375 cells at 50 nM preincubated for 24 hrs followed by exposure to light with fluence rate of 7.5 mW/cm2 at 10 J and measured after 24 hrs by Western blot analysis; type: functional, cell-based
[3] = Drug uptake in human A375 cells preincubated for 24 hrs followed by exposure to light with fluence rate of 7.5 mW/cm2 at 10 J measured after 24 hrs by fluorescence spectroscopic analysis; type: ADME, cell-based; settings: a-375, 24 h
A-375 [4] = assay: Induction of apoptosis in human A375 cells at 50 nM preincubated for 24 hrs followed by exposure to light with fluence rate of 7.5 mW/cm2 at 10 J and measured after 24 hrs by Annexin-V/propidium iodide staining-based FACS analysis; type: functional, cell-based
A-375 [5] = assay: Photocytotoxicity against human A375 cells at 5 to 500 nM preincubated for 24 hrs followed by exposure to light with fluence rate of 7.5 mW/cm2 until 5 to 10 J and measured after 24 hrs by MTT assay; type: functional, cell-based
A-375 [6] = assay: Disruption of mitochondrial membrane potential in human A375 cells at 50 nM preincubated for 24 hrs followed by exposure to light with fluence rate of 7.5 mW/cm2 at 10 J and measured after 24 hrs by JC-1 staining-based assay; type: functional, cell-based
A-375 [7] = assay: Decrease in intracellular superoxide anion generation in human A375 cells at 500 nM preincubated for 24 hrs followed by exposure to light with fluence rate of 7.5 mW/cm2 at 10 J and measured after 24 hrs by dihydroethidium staining-based fluorescence analysis; type: functional, cell-based
A-375 [8] = assay: Induction of apoptosis in human A375 cells assessed as decrease in living cells at 500 nM preincubated for 24 hrs followed by exposure to light with fluence rate of 7.5 mW/cm2 at 10 J and measured after 24 hrs by Annexin-V/propidium iodide stainin-based FACS analysis; type: functional; set-up: scale not given: the % may be the effect or the level left
A-375 [9] = assay: Photocytotoxicity against human A375 cells at 5 to 50 nM preincubated for 24 hrs followed by exposure to light with fluence rate of 7.5 mW/cm2 until 20J and measured after 24 hrs by MTT assay; type: functional, cell-based
A-375 [10] = assay: Photocytotoxicity against human A375 cells preincubated for 24 hrs followed by exposure to light with fluence rate of 7.5 mW/cm2 until 10 J measured after 24 hrs by MTT assay; type: functional, cell-based
A-375 [11] = assay: Increase in expression of reduced glutathione in human A375 cells up to 500 nM preincubated for 24 hrs followed by exposure to light with fluence rate of 7.5 mW/cm2 at 10 J and measured after 24 hrs by mercury orange staining-based fluorescence analysis; type: functional, cell-based
A-375 [12] = assay: Cell cycle arrest in human A375 cells assessed as accumulation at pre-G0 phase up to 500 nM preincubated for 24 hrs followed by exposure to light with fluence rate of 7.5 mW/cm2 at 10 J and measured after 24 hrs by propidium iodide/RNase-staining based flow cytometric analysis; type: functional
[13] = Dark toxicity against human HFF1 cells at 1 to 10 uM after 24 hrs by MTT assay; type: cell-based; settings: hff-1, 24 h
A-375 [14] = assay: Decrease in intracellular peroxides generation in human A375 cells at 500 nM preincubated for 24 hrs followed by exposure to light with fluence rate of 7.5 mW/cm2 at 10 J and measured after 24 hrs by DCFH2-DA staining-based fluorescence analysis; type: functional, cell-based
[15] = Dark toxicity against human A375 cells at 1 to 10 uM after 24 hrs by MTT assay; type: cell-based; settings: a-375, 24 h
A-375 [16] = assay: Photocytotoxicity against human A375 cells assessed as decrease in cell viability by measuring protein content at >= 50 nM preincubated for 24 hrs followed by exposure to light with fluence rate of 7.5 mW/cm2 at 10 J and measured after 24 hrs by sulforhodamine B assay; type: functional, cell-based
A-375 [17] = assay: Phototoxicity against human A375 cells assessed as reduction in cell viability up to 500 nM preincubated for 24 hrs followed by exposure to light with fluence rate of 7.5 mW/cm2 at 10 J and measured after 24 hrs in presence of singlet oxygen scavenger sodium azide by MTT assay; type: functional, cell-based
[18] = Dark toxicity against human HFF1 cells at 5 to 10 uM after 24 hrs by MTT assay; type: cell-based; settings: hff-1, 24 h
[19] = Dark toxicity against human A375 cells at 5 to 10 uM after 24 hrs by MTT assay; type: cell-based; settings: a-375, 24 h
A-375 [20] = assay: Disruption of mitochondrial membrane potential in human A375 cells at 500 nM preincubated for 24 hrs followed by exposure to light with fluence rate of 7.5 mW/cm2 at 10 J and measured after 24 hrs by JC-1 staining-based assay; type: functional, cell-based
A-375 [21] = assay: Cell cycle arrest in human A375 cells assessed as accumulation at G2/M phase up to 500 nM preincubated for 24 hrs followed by exposure to light with fluence rate of 7.5 mW/cm2 at 10 J and measured after 24 hrs by propidium iodide/RNase-staining based flow cytometric analysis; type: functional
A-375 [22] = assay: Cell cycle arrest in human A375 cells assessed as accumulation at G1 phase up to 500 nM preincubated for 24 hrs followed by exposure to light with fluence rate of 7.5 mW/cm2 at 10 J and measured after 24 hrs by propidium iodide/RNase-staining based flow cytometric analysis; type: functional
A-375 [23] = assay: Induction of apoptosis in human A375 cells assessed as increase in necrotic cells at 500 nM preincubated for 24 hrs followed by exposure to light with fluence rate of 7.5 mW/cm2 at 10 J and measured after 24 hrs by Annexin-V/propidium iodide stainin-based FACS analysis; type: functional, cell-based
A-375 [24] = assay: Induction of apoptosis in human A375 cells assessed as increase in necrotic cells at 50 nM preincubated for 24 hrs followed by exposure to light with fluence rate of 7.5 mW/cm2 at 10 J and measured after 24 hrs by Annexin-V/propidium iodide stainin-based FACS analysis; type: functional, cell-based

Drug uptake [3]: Dose-dependent effect
SMILES: COC(=O)c1nn2c(c1C(=O)OC)CC1c3cc4ccc([nH]4)c(-c4ccccc4)c4nc(cc5ccc([nH]5)c(-c5ccccc5)c(n3)C1C2)C=C4 (stereo not drawn)
Activity (A-375 [1]): Active | Activity (A-375 [2]): Active | Activity (A-375 [4]): Active | Activity (A-375 [5]): Active | Activity (A-375 [6]): Active | Activity (A-375 [7]): Active | Activity (A-375 [8]): >50% | Activity (A-375 [9]): Active | IC50 (A-375 [10]): 14.3 nM | Activity (A-375 [11]): inactive | Activity (A-375 [12]): Active | Activity [13]: Non-Toxic | Activity (A-375 [14]): Active | Activity [15]: Non-Toxic | Activity (A-375 [16]): Active | Activity (A-375 [17]): inactive

Drug uptake [3]: Dose-dependent effect
SMILES: OCc1nn2c(c1CO)CC1c3nc(cc4ccc([nH]4)c(-c4ccccc4)c4nc(cc5ccc([nH]5)c3-c3ccccc3)C=C4)C1C2 (stereo not drawn)
Activity (A-375 [1]): Active | Activity [18]: Toxic | Activity (A-375 [2]): Active | Activity (A-375 [4]): Active | Activity (A-375 [5]): Active | Activity (A-375 [6]): Active | Activity (A-375 [7]): Active | Activity (A-375 [8]): inactive | Activity (A-375 [9]): Active | IC50 (A-375 [10]): 2.9 nM | Activity (A-375 [11]): inactive | Activity (A-375 [12]): Active | Activity (A-375 [14]): Active | Activity [19]: Toxic | Activity (A-375 [16]): Active | Activity (A-375 [17]): Active

Drug uptake [3]: Dose-dependent effect
SMILES: OCc1nn2c(c1CO)CC1c3cc4ccc([nH]4)c(-c4ccccc4)c4nc(cc5ccc([nH]5)c(-c5ccccc5)c(n3)C1C2)C=C4 (stereo not drawn)
Activity (A-375 [1]): Active | Activity (A-375 [2]): Active | Activity (A-375 [4]): Active | Activity (A-375 [5]): Active | Activity (A-375 [6]): Active | Activity (A-375 [7]): Active | Activity (A-375 [20]): Active | Activity (A-375 [8]): >50% | Activity (A-375 [9]): Active | IC50 (A-375 [10]): 4.9 nM | Activity (A-375 [11]): inactive | Activity (A-375 [21]): Active | Activity (A-375 [12]): Active | Activity (A-375 [22]): Active | Activity (A-375 [23]): Active | Activity [13]: Non-Toxic | Activity (A-375 [14]): Active | Activity [15]: Non-Toxic | Activity (A-375 [16]): Active | Activity (A-375 [17]): inactive

Drug uptake [3]: Dose-dependent effect
SMILES: COC(=O)c1nn2c(c1C(=O)OC)CC1c3nc(cc4ccc([nH]4)c(-c4ccccc4)c4nc(cc5ccc([nH]5)c3-c3ccccc3)C=C4)C1C2 (stereo not drawn)
Activity (A-375 [1]): Active | Activity (A-375 [2]): Active | Activity (A-375 [5]): Active | Activity (A-375 [6]): Active | Activity (A-375 [7]): Active | Activity (A-375 [20]): Active | Activity (A-375 [8]): >50% | Activity (A-375 [9]): Active | IC50 (A-375 [10]): 14.5 nM | Activity (A-375 [11]): inactive | Activity (A-375 [12]): Active | Activity (A-375 [24]): Active | Activity [13]: Non-Toxic | Activity (A-375 [14]): Active | Activity [15]: Non-Toxic | Activity (A-375 [16]): Active | Activity (A-375 [17]): Active
